Test results published in patent EP2310009B1, “PARENTERAL AND ORAL FORMULATIONS OF BENZIMIDAZOLES” (UNIVERSITY OF HOUSTON, priority 2008, dated 2010).

Assays:
[1] = Mebendazole release from SNEDDS, SEDDS, cosolvent and unformulated suspension; format: physicochemical; settings: 60 minutes; unformulated drug in release media with placebo SNEDDS
Source text: Each point represents the mean ± SD of three independent determinations.
The asterisk* depicts significance between groups compared after analysis by ANOVA using Tukey's post-hoc test, at a threshold of significance at p<0.05.

human plasma protein = settings: cited from earlier work

COC(=O)Nc1nc2ccc(C(=O)c3ccccc3)cc2[nH]1 [MZ, methyl 5-benzoylbenzimidazole-2-carbamate]
extent of drug release [1]: 1.10%
drug bound to human plasma protein (human plasma protein): about 90%
